For orientation: IC50 means the concentration that inhibits the measured activity by half.

Among the data in patent publication US5556864A, “α-ω-diarylalkane compounds serotonin-2 receptor agonists” (Sankyo Company, Limited, priority 1992, dated 1996) are IC50 values, retold here.

Structures can show the parent of a compound that is named as a salt.

In assay [1] the test system is adrenaline-α1 receptors. Kind of assay: Vasoconstriction experiment: relaxation of rat caudal artery strips precontracted with phenylephrine. The class given is cell-based, rat (male Sprague-Dawley). The note with it: precontracted with phenylephrine 10^-6 M; concentration causing one half of maximum relaxation (papaverine 10^-4 M = maximum); 37 °C; read-out: IC50 adrenalin-α1. The protocol:
(§1) Vasoconstriction Experiment
(§2) Contractions of the rat caudal ateries were investigated by the method of Van Neuten et al. (J. Pharmacol. Exp. Ther., 218, 217-230, 1981).
(§3) Male Sprague-Dawley rats, each weighing approximately 500 g, were sacrificed by rapid exsanguination. The caudal arteries were dissected free from connective tissue and cut into spiral strips (2×20 mm). The resulting preparations were mounted in organ baths, each containing 10 ml of Tyrode solution maintained at 37° C., and then gassed with a mixture of 95% by volume O2 and 5% CO2. The preparations were allowed to equilibrate for 1 hour before being used in the experiment.
(§4) An initial optimum resting tension of 0.5 g was applied to the preparations, and isometric contractions were recorded with force-displacement transducers. The relaxant effects of the test compounds were determined on preparations which had been precontracted with 5-HT (5-hydroxytryptamine) (3×10^-6 M), which is an agonist of the 5-HT2 receptors, or phenylephrine (10^-6 M), which is an agonist of the adrenaline-α1 receptors. After the constractile response to the 5-HT or the phenylephrine had reached a steady state, the test compound was added cumulatively to the bathing medium. At the end of the experiments, papaverine (10^-4 M) was added to produce the maximum relaxation.
(§5) The relaxation induced by each test compound was calculated as a percentage of the maximum relaxation induced by 10^-4 M of papaverine. The concentrations causing one half of the maximum relaxation (IC50) were calculated by the method of least squares.

Assay [2] concerns the target T1, 5-HT2 receptors (Rattus norvegicus, UniProt P14842).
T1 construct: The caudal arteries were dissected free from connective tissue and cut into spiral strips; from tissue; host or cells: rat caudal artery, spiral strips
Put plainly: Vasoconstriction experiment: relaxation of rat caudal artery strips precontracted with 5-HT. The class given is cell-based, rat (male Sprague-Dawley). To be noted: precontracted with 5-HT 3×10^-6 M; concentration causing one half of maximum relaxation (papaverine 10^-4 M = maximum); 37 °C. As to the method:
as §1, §2, §3, §4, §5

T1 sequence (P14842 whole entry): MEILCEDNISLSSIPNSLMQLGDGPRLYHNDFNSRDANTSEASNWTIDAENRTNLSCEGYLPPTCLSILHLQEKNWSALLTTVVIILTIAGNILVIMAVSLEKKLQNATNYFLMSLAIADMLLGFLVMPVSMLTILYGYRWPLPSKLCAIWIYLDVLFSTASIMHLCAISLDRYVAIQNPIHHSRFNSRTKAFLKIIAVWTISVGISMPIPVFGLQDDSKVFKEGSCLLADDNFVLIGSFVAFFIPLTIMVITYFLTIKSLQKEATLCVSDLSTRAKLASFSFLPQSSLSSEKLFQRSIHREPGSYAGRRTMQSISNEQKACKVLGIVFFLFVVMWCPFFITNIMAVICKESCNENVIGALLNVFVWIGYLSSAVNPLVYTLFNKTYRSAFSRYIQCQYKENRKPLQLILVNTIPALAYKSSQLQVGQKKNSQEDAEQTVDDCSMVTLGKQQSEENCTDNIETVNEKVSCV

In the case of `COc1cccc(CCc2ccccc2OCCC2CCCCN2C)c1` (stereo not shown) [Example 48, 2-(2-{2-[2-(3-Methoxyphenyl)ethyl]phenoxy}ethyl)-1-methylpiperidine hydrochloride], the half-inhibitory concentration (IC50) in assay [1] is 2500 nM; in assay [2], 3.7 nM.
On the same counts, the results for `COc1cccc(CCc2ccccc2OCC2CCCN(C)C2)c1` (stereo not shown) [Example 50, 3-{2-[2-(3-Methoxyphenyl)ethyl]phenoxymethyl}-1-methylpiperidine hydrochloride] are 3700 nM and 4.3 nM.
On the same counts, the results for `COc1cccc(CCc2ccccc2OC[C@@H]2CCCN2C)c1` [Example 58, (S)-2-{2-[2-(3-Methoxyphenyl)ethyl]phenoxymethyl}-1-methylpyrrolidine hydrochloride] are 4900 nM and 5 nM.
On the same counts, the results for `CN1CCCC1CCOc1ccccc1CCc1ccccc1F` (stereo not shown) [Example 97, 2-(2-{2-[2-(2-Fluorophenyl)ethyl]phenoxy}ethyl)-1-methylpyrrolidine hydrochloride] are 860 nM and 6.5 nM.
As for `CN1CCCC1CCOc1ccccc1CCc1cccc(Br)c1` (stereo not shown) [Example 98, 2-(2-{2-[2-(3-Bromophenyl)ethyl]phenoxy}ethyl)-1-methylpyrrolidine hydrochloride], the figures for the half-inhibitory concentration (IC50) in assay [1] and in assay [2] were 2200 nM and 5.4 nM, respectively.
On to `CCOc1cccc(CCc2ccccc2OCCC2CCCN2C)c1` (stereo not shown) [Example 99, 2-(2-{2-[2-(3-Ethoxyphenyl)ethyl]phenoxy}ethyl)-1-methylpyrrolidine hydrochloride], for which the IC50 in assay [1] was 1300 nM; in assay [2], 6.1 nM.
In the case of `CCOc1ccc(CCc2ccccc2OCCC2CCCN2C)cc1` (stereo not shown) [Example 101, 2-(2-{2-[2-(4-Ethoxyphenyl)ethyl]phenoxy}ethyl)-1-methylpyrrolidine hydrochloride], the IC50 came to 3700 nM in assay [1] and 3.7 nM in assay [2].
In the case of `CN1CCCC1CCOc1ccccc1CCc1ccccc1C#N` (stereo not shown) [Example 108, 2-(2-{2-[2-(2-Cyanophenyl)ethyl]phenoxy}ethyl)-1-methylpyrrolidine hydrochloride], the half-inhibitory concentration (IC50) was found to be 1700 nM in assay [1] and 2.2 nM in assay [2].
With `COc1cccc(CCc2ccccc2OCC[C@@H]2CCCN2C)c1` [Example 113, (S)-2-(2-{2-[2-(3-Methoxyphenyl)ethyl]phenoxy}ethyl)-1-methylpyrrolidine hydrochloride], the half-maximal inhibitory concentration (IC50) was 1200 nM in assay [1] and 2.2 nM in assay [2].
Regarding `CN1CCC[C@H]1CCOc1ccccc1CCc1cccc(OC(F)F)c1` [Example 116, (S)-2-(2-{2-[2-(3-Difluoromethoxyphenyl)ethyl]phenoxy}ethyl)-1-methylpyrrolidine hydrochloride], in assay [2], it took 2.2 nM to reach half-maximal inhibition (IC50).
Regarding `COc1cc(CCc2ccccc2OCC[C@@H]2C[C@@H](O)CN2C)cc(OC)c1` [Example 118, (2R,4R)-4-hydroxy-2-(2-{2-[2-(3,5-dimethoxyphenyl)ethyl]phenoxy}ethyl)-1-methylpyrrolidine], the IC50 was determined as 5400 nM in assay [1] and 2.6 nM in assay [2].
In turn, `COc1cccc(CCc2ccccc2OC[C@H]2CCCNC2)c1` [Example 120, (S)-3-{2-[2-(3-Methoxyphenyl)ethyl]phenoxymethyl}piperidine hydrochloride] came in with an IC50 in assay [2] of 4.2 nM.
`COc1cccc(CCc2ccccc2OC[C@H]2CCCN(C)C2)c1` [Example 121, (S)-3-{2-[2-(3-Methoxyphenyl)ethyl]phenoxymethyl}-1-methylpiperidine hydrochloride] showed a half-inhibitory concentration (IC50) in assay [2] of 2.2 nM.
Same read-out and setting: then `FC(F)Oc1cccc(CCc2ccccc2OCC2CCCNC2)c1` (stereo not shown) [Example 123, 3-{2-[2-(3-Difluoromethoxyphenyl)ethyl]phenoxymethyl}piperidine hydrochloride], with 5.7 nM; and `CN1CCCC(COc2ccccc2CCc2cccc(OC(F)F)c2)C1` (stereo not shown) [Example 124, 3-{2-[2-(3-Difluoromethoxyphenyl)ethyl]phenoxymethyl}-1-methylpiperidine hydrochloride], with 4.6 nM.
